Results on 25 compounds are retold here after patent US8344008B2 (Janssen Pharmaceutica NV, priority 2007, dated 2013).

Structures can show the parent of a compound that is named as a salt.

Broadly, the Ki is a dissociation constant, usually derived from enzyme kinetics or from competition with a known ligand.

In this test the target is T1, recombinant human LTA4 hydrolase (rhLTA4H) (Homo sapiens, UniProt P09960).
T1 construct: made in house; host or cells: Spodoptera frugiperda (Sf-9) cells, baculovirus (pFastBac1)
T1 sequence (P09960 1-611): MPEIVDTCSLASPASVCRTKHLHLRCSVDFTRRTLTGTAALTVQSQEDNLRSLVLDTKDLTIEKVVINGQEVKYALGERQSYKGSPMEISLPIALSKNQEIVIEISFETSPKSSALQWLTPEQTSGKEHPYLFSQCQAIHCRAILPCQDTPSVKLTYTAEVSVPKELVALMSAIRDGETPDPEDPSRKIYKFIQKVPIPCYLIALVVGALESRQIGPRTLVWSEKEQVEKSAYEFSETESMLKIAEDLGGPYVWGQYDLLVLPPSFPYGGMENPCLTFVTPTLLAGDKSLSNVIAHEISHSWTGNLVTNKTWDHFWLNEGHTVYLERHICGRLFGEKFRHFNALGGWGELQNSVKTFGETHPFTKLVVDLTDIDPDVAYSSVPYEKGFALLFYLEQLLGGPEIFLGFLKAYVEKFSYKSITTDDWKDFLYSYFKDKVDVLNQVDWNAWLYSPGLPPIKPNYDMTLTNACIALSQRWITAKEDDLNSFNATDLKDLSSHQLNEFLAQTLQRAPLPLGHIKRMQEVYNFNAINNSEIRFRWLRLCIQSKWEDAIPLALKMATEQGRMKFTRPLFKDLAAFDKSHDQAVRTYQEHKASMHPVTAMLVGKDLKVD
In words: Recombinant Human LTA4 Hydrolase Assay for LTA4 Hydrolase Inhibitor Activity. The format is biochemical. To be noted: average of results obtained; LTB4 quantified by enzyme-linked immunoassay. As for the experimental part:
Biological Methods: Recombinant Human LTA4 Hydrolase Assay for LTA4 Hydrolase Inhibitor Activity
Compounds of the present invention were tested for LTA4 hydrolase inhibitor activity against recombinant human LTA4 hydrolase (rhLTA4H). Vectors were prepared and used to express rhLTA4H essentially as follows: LTA4 hydrolase encoding DNA was amplified by polymerase chain reaction (PCR) using a human placental cDNA library as a template. Oligonucleotide primers for the PCR reaction were based on the 5′-end, and the complement of the 3′-end, of the published nucleotide sequence for the coding region of the human LTA4 hydrolase gene (C. D. Funk et al., Proc. Natl. Acad. Sci. USA 1987, 84:6677-6681). The amplified 1.9 kb DNA fragment encoding LTA4 hydrolase was isolated and cloned into the pFastBac1 vector (Invitrogen). Recombinant baculovirus was generated as described by the manufacturer, and used to infect Spodoptera frugiperda (Sf-9) cells. Recombinant LTA4 hydrolase enzyme was purified from the infected Sf-9 cells essentially as described by J. K. Gierse et al. (Protein Expression and Purification 1993, 4:358-366). The purified enzyme solution was adjusted to contain 0.29 mg/mL LTA4 hydrolase, 50 mM Tris (pH 8.0), 150 mM NaCl, 5 mM dithiothreitol, 50% glycerol, and EDTA-free Complete protease inhibitor cocktail (Roche). The specific activity of the enzyme was about 3.8 μmol/min/mg.
LTA4 substrate was prepared from the methyl ester of LTA4 (Cayman Chemical) by treatment with 67 equiv of NaOH under nitrogen at rt for 40 min. The LTA4 substrate in its free acid form was kept frozen at −80° C. until needed. Each compound was diluted to different concentrations in assay buffer (0.1 M potassium phosphate (pH 7.4), 5 mg/mL fatty acid free BSA) containing 10% DMSO. A 25-uL aliquot of each compound dilution was incubated for 10 min at rt with an equal volume of assay buffer containing 36 ng of recombinant human LTA4H. The solution was then adjusted to 200 μL with assay buffer. LTA4 (free acid) was thawed and diluted in assay buffer to a concentration of 357 ng/mL, and 25 μL (9 ng) of LTA4 substrate was added to the reaction mixture (total volume=225 μL) at time zero. Each reaction was carried out at rt for 10 min. The reaction was stopped by diluting 10 μL of the reaction mixture with 200 μL of assay buffer. LTB4 was quantified in the diluted sample by a commercially available enzyme-linked immunoassay (Cayman Chemical Co.), as recommended by the manufacturer. Positive controls, under essentially identical conditions but without addition of an inhibitor compound, and negative controls, containing all assay components except enzyme, were routinely run in each experiment. […]
Results for the compounds tested in this assay are presented in Table 1 as an average of results obtained.
For the compound `NC(=O)N1CC2CCN(Cc3ccc(Oc4nc5ccccc5s4)cc3)CC2C1` (racemic) [Example 141, (±)-5-[4-(Benzothiazol-2-yloxy)-benzyl]-octahydro-pyrrolo[3,4-c]pyridine-2-carboxylic acid amide], the inhibitory constant (Ki) turned out to be 35 nM.

With `CCOC(=O)CN1CC2CN(Cc3ccc(Oc4nc5ccccc5s4)cc3)CC2C1` (stereo not shown) [Example 155, {5-[4-(Benzothiazol-2-yloxy)-benzyl]-hexahydro-pyrrolo[3,4-c]pyrrol-2-yl}-acetic acid ethyl ester], the Ki came to 170 nM.

Take `c1ccc2sc(Oc3ccc(OCCN4C[C@@H]5C[C@H]4CN5)cc3)nc2c1` [Example 9B, (S,S)-2-{4-[2-(2,5-Diaza-bicyclo[2.2.1]hept-2-yl)-ethoxy]-phenoxy}-benzothiazole trifluoroacetate]: the Ki was found to be 43 nM.

`CS(=O)(=O)N1CC2CCC(C1)N2CCc1ccc(Oc2nc3cc(F)ccc3s2)cc1` [Example 210, meso-5-Fluoro-2-{4-[2-(3-methanesulfonyl-3,8-diaza-bicyclo[3.2.1]oct-8-yl)-ethyl]-phenoxy}-benzothiazole]: the Ki stood at 163 nM.

For the compound `CS(=O)(=O)N[C@H]1C[C@H]2CC[C@@H](C1)N2CCc1ccc(Oc2nc3ccc(F)cc3s2)cc1` [Example 277, meso-endo-N-(8-{2-[4-(6-Fluoro-benzothiazol-2-yloxy)-phenyl]-ethyl}-8-aza-bicyclo[3.2.1]oct-3-yl)-methanesulfonamide], the Ki is 17 nM.

Regarding `COCC(=O)N1C[C@@H]2C[C@H]1CN2CCOc1ccc(Oc2nc3ccccc3s2)cc1` [Example 22, (S,S)-1-(5-{2-[4-(Benzothiazol-2-yloxy)-phenoxy]-ethyl}-2,5-diaza-bicyclo[2.2.1]hept-2-yl)-2-methoxy-ethanone], the Ki was found to be 10 nM.

Regarding `CC(=O)N1[C@@H]2CC[C@H]1C[C@@H](NCCOc1ccc(Oc3nc4ccc(C)cc4s3)cc1)C2` [Example 172, meso-exo-1-(3-{2-[4-(6-Methyl-benzothiazol-2-yloxy)-phenoxy]-ethylamino}-8-aza-bicyclo[3.2.1]oct-8-yl)-ethanone], the Ki came out at 1050 nM.

In the case of `CS(=O)(=O)N1C2CCC1CN(Cc1ccc(Oc3nc4ccccc4s3)cc1)C2` [Example 57, meso-2-[4-(8-Methanesulfonyl-3,8-diaza-bicyclo[3.2.1]oct-3-ylmethyl)-phenoxy]-benzothiazole], the Ki is 173 nM.

Regarding `O=C([C@@H]1CCCO1)N1CC2CN(Cc3ccc(Oc4nc5ccccc5s4)cc3)CC2C1` (stereo partly drawn) [Example 101, (S)-{5-[4-(Benzothiazol-2-yloxy)-benzyl]-hexahydro-pyrrolo[3,4-c]pyrrol-2-yl}-(tetrahydro-furan-2-yl)-methanone], the Ki is 108 nM.

On to `CC(=O)N1CC2CCC(C1)N2CCc1ccc(Oc2nc3ccc(Cl)cc3s2)cc1` [Example 250, meso-1-(8-{2-[4-(6-Chloro-benzothiazol-2-yloxy)-phenyl]-ethyl}-3,8-diaza-bicyclo[3.2.1]oct-3-yl)-ethanone], for which the Ki is 232 nM.

For `CS(=O)(=O)N1C[C@H]2C[C@@H]1CN2Cc1ccc(Oc2nc3ccc(F)cc3s2)cc1` [Example 201, (R,R)-6-Fluoro-2-[4-(5-methanesulfonyl-2,5-diaza-bicyclo[2.2.1]hept-2-ylmethyl)-phenoxy]-benzothiazole], the Ki was found to be 145 nM.

With `CN(Cc1ccc(Oc2nc3ccccc3s2)cc1)[C@H]1C[C@H]2CC[C@@H](C1)N2C(N)=O` [Example 75, meso-endo-3-{[4-(Benzothiazol-2-yloxy)-benzyl]-methyl-amino}-8-aza-bicyclo[3.2.1]octane-8-carboxylic acid amide], the inhibition constant Ki was 95 nM.

Regarding `CS(=O)(=O)N1C[C@@H]2C[C@H]1CN2CCOc1ccc(Oc2nc3c(F)cccc3s2)cc1` [Example 191, (S,S)-4-Fluoro-2-{4-[2-(5-methanesulfonyl-2,5-diaza-bicyclo[2.2.1]hept-2-yl)-ethoxy]-phenoxy}-benzothiazole], the Ki came out at 32 nM.

Take `COC(=O)CN1CC2CN(Cc3ccc(Oc4nc5ccccc5s4)cc3)CC2C1` (stereo not shown) [Example 157, {5-[4-(Benzothiazol-2-yloxy)-benzyl]-hexahydro-pyrrolo[3,4-c]pyrrol-2-yl}-acetic acid methyl ester]: the Ki is 57 nM.

For `CC(=O)N1C[C@H]2C[C@@H]1CN2Cc1ccc(Oc2nc3cc(F)ccc3s2)cc1` [Example 183, (R,R)-1-{5-[4-(5-Fluoro-benzothiazol-2-yloxy)-benzyl]-2,5-diaza-bicyclo[2.2.1]hept-2-yl}-ethanone], the Ki amounted to 383 nM.

As to `O=C(N1C[C@@H]2C[C@H]1CN2CCc1ccc(Oc2nc3ccccc3s2)cc1)C1(O)CC1` [Example 16], the Ki turned out to be 11 nM.

Take `CC(=O)N1[C@@H]2CC[C@H]1C[C@H](NCc1ccc(Oc3nc4ccc(C)cc4s3)cc1)C2` [Example 184, meso-exo-1-{3-[4-(6-Methyl-benzothiazol-2-yloxy)-benzylamino]-8-aza-bicyclo[3.2.1]oct-8-yl}-ethanone]: the Ki was found to be 406 nM.

As for `CC(C)(C)OC(=O)N1CC(C(=O)N2C[C@@H]3C[C@H]2CN3CCOc2ccc(Oc3nc4ccccc4s3)cc2)C1` [Example 67, (S,S)-3-(5-{2-[4-(Benzothiazol-2-yloxy)-phenoxy]-ethyl}-2,5-diaza-bicyclo[2.2.1]heptane-2-carbonyl)-azetidine-1-carboxylic acid tert-butyl ester], the Ki was 201 nM.

For the compound `CC(=O)N1C[C@H]2C[C@@H]1CN2CCc1ccc(Oc2nc3cc(Cl)ccc3s2)cc1` [Example 274, (R,R)-1-(5-{2-[4-(5-Chloro-benzothiazol-2-yloxy)-phenyl]-ethyl}-2,5-diaza-bicyclo[2.2.1]hept-2-yl)-ethanone], the Ki came out at 121 nM.

As for `CC(=O)N1C[C@@H]2C[C@H]1CN2Cc1ccc(Cc2nc3ccccc3s2)cc1` [Example 4, (S,S)-1-[5-(4-Benzothiazol-2-ylmethyl-benzyl)-2,5-diaza-bicyclo[2.2.1]hept-2-yl]-ethanone], the inhibition constant (Ki) amounted to 163 nM.

Regarding `CC(=O)N[C@@H]1C[C@H]2CC[C@@H](C1)N2Cc1ccc(Oc2nc3ccc(F)cc3s2)cc1` [Example 272, meso-exo-N-{8-[4-(6-Fluoro-benzothiazol-2-yloxy)-benzyl]-8-aza-bicyclo[3.2.1]oct-3-yl}-acetamide], the inhibition constant (Ki) came out at 6 nM.

As to `CS(=O)(=O)N1CC2CN(Cc3ccc(Oc4nc5ccccc5s4)cc3)CC2C1` (stereo not shown) [Example 129, 2-[4-(5-Methanesulfonyl-hexahydro-pyrrolo[3,4-c]pyrrol-2-ylmethyl)-phenoxy]-benzothiazole], the Ki amounted to 35 nM.

Turning to `CC(=O)N[C@@H]1C[C@H]2CC[C@@H](C1)N2Cc1ccc(Oc2nc3cc(Cl)ccc3s2)cc1` [Example 276, meso-exo-N-{8-[4-(5-Chloro-benzothiazol-2-yloxy)-benzyl]-8-aza-bicyclo[3.2.1]oct-3-yl}-acetamide], the inhibition constant Ki was 38 nM.

For `NC(=O)N[C@H]1C[C@H]2CC[C@@H](C1)N2Cc1ccc(Oc2nc3cc(Cl)ccc3s2)cc1` [Example 259, meso-endo-{8-[4-(5-Chloro-benzothiazol-2-yloxy)-benzyl]-8-aza-bicyclo[3.2.1]oct-3-yl}-urea], the Ki was 58 nM.

In the case of `NC(=O)N1CCC2CN(Cc3ccc(Oc4nc5ccccc5s4)cc3)CC2C1` (stereo not shown) [Example 143, 2-[4-(Benzothiazol-2-yloxy)-benzyl]-octahydro-pyrrolo[3,4-c]pyridine-5-carboxylic acid amide], the Ki worked out at 33 nM.
